In PubChem BioAssay (NCI):
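A five-concentration, 48-hour dose response in 96-well plates underlies each endpoint, interpolated linearly between surrounding concentrations. GI50 = concentration required for 50% inhibition of growth. TGI denotes the concentration required for complete inhibition of growth.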

Tests used:
Test in all cases: growth of human tumour cells (NCI), 48 h
SF-295 CNS = test system: SF-295 CNS
COLO 205 colon = test system: COLO 205 colon
HL-60(TB) leukemia = test system: HL-60(TB) leukemia
HCT-116 colon = test system: HCT-116 colon
SF-268 CNS = test system: SF-268 CNS
MALME-3M melanoma = test system: MALME-3M melanoma
EKVX NSCLC = test system: EKVX NSCLC
HOP-92 NSCLC = test system: HOP-92 NSCLC
UACC-257 melanoma = test system: UACC-257 melanoma
OVCAR-8 ovarian = test system: OVCAR-8 ovarian
SF-539 CNS = test system: SF-539 CNS
PC-3 prostate = test system: PC-3 prostate
SNB-75 CNS = test system: SNB-75 CNS
SK-OV-3 ovarian = test system: SK-OV-3 ovarian
HCC-2998 colon = test system: HCC-2998 colon
RXF 393 renal = test system: RXF 393 renal
IGROV1 ovarian = test system: IGROV1 ovarian
NCI-H460 lung = test system: NCI-H460 lung
MCF7 breast = test system: MCF7 breast
TK-10 renal = test system: TK-10 renal
T-47D breast = test system: T-47D breast
OVCAR-4 ovarian = test system: OVCAR-4 ovarian
OVCAR-3 ovarian = test system: OVCAR-3 ovarian
786-0 renal = test system: 786-0 renal
NCI/ADR-RES ovarian = test system: NCI/ADR-RES ovarian
NCI-H226 lung = test system: NCI-H226 lung
OVCAR-5 ovarian = test system: OVCAR-5 ovarian
HT29 colon = test system: HT29 colon
SNB-19 CNS = test system: SNB-19 CNS
BT-549 breast = test system: BT-549 breast
CAKI-1 renal = test system: CAKI-1 renal
A549 NSCLC = test system: A549 NSCLC
M14 melanoma = test system: M14 melanoma
HS 578T breast = test system: HS 578T breast
U251 CNS = test system: U251 CNS
DU-145 prostate = test system: DU-145 prostate
ACHN renal = test system: ACHN renal
KM12 colon = test system: KM12 colon
HCT-15 colon = test system: HCT-15 colon
MDA-MB-468 breast = test system: MDA-MB-468 breast
SW-620 colon = test system: SW-620 colon
HOP-62 NSCLC = test system: HOP-62 NSCLC
SK-MEL-2 melanoma = test system: SK-MEL-2 melanoma
MOLT-4 leukemia = test system: MOLT-4 leukemia
RPMI-8226 leukemia = test system: RPMI-8226 leukemia
K-562 leukemia = test system: K-562 leukemia
NCI-H522 lung = test system: NCI-H522 lung
NCI-H23 lung = test system: NCI-H23 lung
UACC-62 melanoma = test system: UACC-62 melanoma
A498 renal = test system: A498 renal
MDA-MB-435 = test system: MDA-MB-435
CCRF-CEM leukemia = test system: CCRF-CEM leukemia
SN12C renal = test system: SN12C renal
SK-MEL-28 melanoma = test system: SK-MEL-28 melanoma
LOX IMVI melanoma = test system: LOX IMVI melanoma
SK-MEL-5 melanoma = test system: SK-MEL-5 melanoma

`CO[C@@H]1CSSC1Cn1nc(-c2ccc(Oc3ccccc3)cc2)c2c(N)ncnc21` (some centres not stated) was tested. Which GI50 (SF-295 CNS) did it give?
Its GI50 is 62 µM.

And the TGI (SF-295 CNS)?
The TGI was greater than 100 µM.

What about the GI50 (COLO 205 colon) of the same compound?
The GI50 was 53.2 µM.

What about the TGI (COLO 205 colon) of the same compound?
Its TGI is greater than 100 µM.

What about the GI50 (HL-60(TB) leukemia) of the same compound?
Its GI50 is 6.13 µM.

And the TGI (HL-60(TB) leukemia)?
The TGI was greater than 100 µM.

And the GI50 (HCT-116 colon)?
Its GI50 is 5.36 µM.

And the TGI (HCT-116 colon)?
The TGI was greater than 100 µM.

What about the GI50 (SF-268 CNS) of the same compound?
The GI50 was 8.22 µM.

And the TGI (SF-268 CNS)?
Its TGI is greater than 100 µM.

What about the GI50 (MALME-3M melanoma) of the same compound?
The GI50 was 62.7 µM.

And the TGI (MALME-3M melanoma)?
The TGI was greater than 100 µM.

What about the GI50 (EKVX NSCLC) of the same compound?
Its GI50 is 7.29 µM.

And the TGI (EKVX NSCLC)?
Its TGI is greater than 100 µM.

And the GI50 (HOP-92 NSCLC)?
The GI50 was greater than 100 µM.

What about the TGI (HOP-92 NSCLC) of the same compound?
Its TGI is greater than 100 µM.

What about the GI50 (UACC-257 melanoma) of the same compound?
The GI50 was 16.2 µM.

And the TGI (UACC-257 melanoma)?
Its TGI is greater than 100 µM.

And the GI50 (OVCAR-8 ovarian)?
The GI50 was greater than 100 µM.

And the TGI (OVCAR-8 ovarian)?
The TGI was greater than 100 µM.

What about the GI50 (SF-539 CNS) of the same compound?
Its GI50 is greater than 100 µM.

And the TGI (SF-539 CNS)?
The TGI was greater than 100 µM.

What about the GI50 (PC-3 prostate) of the same compound?
Its GI50 is 58.7 µM.

What about the TGI (PC-3 prostate) of the same compound?
Its TGI is greater than 100 µM.

What about the GI50 (SNB-75 CNS) of the same compound?
The GI50 was greater than 100 µM.

And the TGI (SNB-75 CNS)?
The TGI was greater than 100 µM.

And the GI50 (SK-OV-3 ovarian)?
The GI50 was 3.25 µM.

What about the TGI (SK-OV-3 ovarian) of the same compound?
The TGI was 24.6 µM.

What about the GI50 (HCC-2998 colon) of the same compound?
Its GI50 is 21 µM.

And the TGI (HCC-2998 colon)?
Its TGI is greater than 100 µM.

And the GI50 (RXF 393 renal)?
Its GI50 is 50.3 µM.

And the TGI (RXF 393 renal)?
Its TGI is greater than 100 µM.

What about the GI50 (IGROV1 ovarian) of the same compound?
The GI50 was greater than 100 µM.

And the TGI (IGROV1 ovarian)?
The TGI was greater than 100 µM.

And the GI50 (NCI-H460 lung)?
Its GI50 is 3.43 µM.

And the TGI (NCI-H460 lung)?
The TGI was 76.5 µM.

And the GI50 (MCF7 breast)?
The GI50 was 6.87 µM.

What about the TGI (MCF7 breast) of the same compound?
The TGI was greater than 100 µM.

And the GI50 (TK-10 renal)?
The GI50 was 37.9 µM.

And the TGI (TK-10 renal)?
The TGI was greater than 100 µM.

What about the GI50 (T-47D breast) of the same compound?
Its GI50 is 6.14 µM.

What about the TGI (T-47D breast) of the same compound?
The TGI was greater than 100 µM.

What about the GI50 (OVCAR-4 ovarian) of the same compound?
The GI50 was greater than 100 µM.

And the TGI (OVCAR-4 ovarian)?
Its TGI is greater than 100 µM.

What about the GI50 (OVCAR-3 ovarian) of the same compound?
The GI50 was 63.5 µM.

And the TGI (OVCAR-3 ovarian)?
The TGI was greater than 100 µM.

What about the GI50 (786-0 renal) of the same compound?
Its GI50 is greater than 100 µM.

What about the TGI (786-0 renal) of the same compound?
The TGI was greater than 100 µM.

And the GI50 (NCI/ADR-RES ovarian)?
The GI50 was greater than 100 µM.

What about the TGI (NCI/ADR-RES ovarian) of the same compound?
The TGI was greater than 100 µM.

And the GI50 (NCI-H226 lung)?
The GI50 was 39.7 µM.

And the TGI (NCI-H226 lung)?
Its TGI is greater than 100 µM.

What about the GI50 (OVCAR-5 ovarian) of the same compound?
The GI50 was 51.5 µM.

And the TGI (OVCAR-5 ovarian)?
The TGI was greater than 100 µM.

And the GI50 (HT29 colon)?
Its GI50 is 6.82 µM.

And the TGI (HT29 colon)?
The TGI was greater than 100 µM.

And the GI50 (SNB-19 CNS)?
Its GI50 is greater than 100 µM.

And the TGI (SNB-19 CNS)?
The TGI was greater than 100 µM.

And the GI50 (BT-549 breast)?
The GI50 was greater than 100 µM.

What about the TGI (BT-549 breast) of the same compound?
The TGI was greater than 100 µM.

What about the GI50 (CAKI-1 renal) of the same compound?
Its GI50 is greater than 100 µM.

What about the TGI (CAKI-1 renal) of the same compound?
Its TGI is greater than 100 µM.

And the GI50 (A549 NSCLC)?
The GI50 was 13.9 µM.

And the TGI (A549 NSCLC)?
Its TGI is greater than 100 µM.

What about the GI50 (M14 melanoma) of the same compound?
Its GI50 is 1.99 µM.

And the TGI (M14 melanoma)?
The TGI was 4.35 µM.

What about the GI50 (HS 578T breast) of the same compound?
The GI50 was greater than 100 µM.

What about the TGI (HS 578T breast) of the same compound?
Its TGI is greater than 100 µM.

And the GI50 (U251 CNS)?
The GI50 was greater than 100 µM.

What about the TGI (U251 CNS) of the same compound?
Its TGI is greater than 100 µM.

And the GI50 (DU-145 prostate)?
Its GI50 is greater than 100 µM.

And the TGI (DU-145 prostate)?
The TGI was greater than 100 µM.

What about the GI50 (ACHN renal) of the same compound?
The GI50 was 12.3 µM.

What about the TGI (ACHN renal) of the same compound?
Its TGI is greater than 100 µM.

And the GI50 (KM12 colon)?
Its GI50 is 8.73 µM.

What about the TGI (KM12 colon) of the same compound?
The TGI was greater than 100 µM.

And the GI50 (HCT-15 colon)?
Its GI50 is 33.3 µM.

What about the TGI (HCT-15 colon) of the same compound?
Its TGI is greater than 100 µM.

What about the GI50 (MDA-MB-468 breast) of the same compound?
The GI50 was 5.18 µM.

What about the TGI (MDA-MB-468 breast) of the same compound?
Its TGI is 86.5 µM.

And the GI50 (SW-620 colon)?
The GI50 was 57.9 µM.

And the TGI (SW-620 colon)?
The TGI was greater than 100 µM.

What about the GI50 (HOP-62 NSCLC) of the same compound?
The GI50 was 16.4 µM.

What about the TGI (HOP-62 NSCLC) of the same compound?
The TGI was greater than 100 µM.

What about the GI50 (SK-MEL-2 melanoma) of the same compound?
The GI50 was 22.8 µM.

And the TGI (SK-MEL-2 melanoma)?
The TGI was greater than 100 µM.

What about the GI50 (MOLT-4 leukemia) of the same compound?
Its GI50 is 2.24 µM.

And the TGI (MOLT-4 leukemia)?
The TGI was 6.52 µM.

And the GI50 (RPMI-8226 leukemia)?
The GI50 was 43.3 µM.

And the TGI (RPMI-8226 leukemia)?
Its TGI is greater than 100 µM.

What about the GI50 (K-562 leukemia) of the same compound?
The GI50 was 3.6 µM.

And the TGI (K-562 leukemia)?
The TGI was greater than 100 µM.

And the GI50 (NCI-H522 lung)?
The GI50 was 41.8 µM.

What about the TGI (NCI-H522 lung) of the same compound?
Its TGI is greater than 100 µM.

What about the GI50 (NCI-H23 lung) of the same compound?
The GI50 was greater than 100 µM.

And the TGI (NCI-H23 lung)?
The TGI was greater than 100 µM.

What about the GI50 (UACC-62 melanoma) of the same compound?
Its GI50 is 14.5 µM.

And the TGI (UACC-62 melanoma)?
The TGI was greater than 100 µM.

And the GI50 (A498 renal)?
The GI50 was 99 µM.

And the TGI (A498 renal)?
Its TGI is greater than 100 µM.

And the GI50 (MDA-MB-435)?
The GI50 was 3.19 µM.

What about the TGI (MDA-MB-435) of the same compound?
Its TGI is 10.2 µM.

What about the GI50 (CCRF-CEM leukemia) of the same compound?
The GI50 was 4.29 µM.

And the TGI (CCRF-CEM leukemia)?
Its TGI is greater than 100 µM.

What about the GI50 (SN12C renal) of the same compound?
The GI50 was greater than 100 µM.

And the TGI (SN12C renal)?
The TGI was greater than 100 µM.

What about the GI50 (SK-MEL-28 melanoma) of the same compound?
The GI50 was 2.87 µM.

And the TGI (SK-MEL-28 melanoma)?
The TGI was 21 µM.

And the GI50 (LOX IMVI melanoma)?
The GI50 was 43.9 µM.

What about the TGI (LOX IMVI melanoma) of the same compound?
The TGI was greater than 100 µM.

And the GI50 (SK-MEL-5 melanoma)?
Its GI50 is 14.8 µM.

What about the TGI (SK-MEL-5 melanoma) of the same compound?
The TGI was greater than 100 µM.
